System: NSCs (HB1.F3-CD)
Experiment: CRAd-S-pk7 replication in NSCs treated with XRT-TMZ (E1A qPCR, titer)
Format: cell-based, human
Conditions: day 4; TMZ 100 µM
Description: FIGS. 41A, 41B and 41C show evaluation of CRAd-Survivin-pk7 (CRAd-S-pk7) replication in neural stem cells (NSCs) treated with XRT-TMZ according to one embodiment. Viral replication of CRAd-S-pk7 was measured by quantitative real-time polymerase chain reaction and presented as a number of viral E1A copies per nanogram of DNA from infected NSCs. (FIG. 41A, 41B): Viral replication was evaluated daily up to 96 hours after treatment with 0, 10, 50, or 100 µM TMZ (FIG. 41A) and 0, 2, or 4 Gy of XRT (FIG. 41B). (FIG. 41C): CRAd-S-pk7 viral titer levels 96 hours after XRT-TMZ treatment of infected NSCs. […] Abbreviations: DMSO, dimethyl sulfoxide; IU, infectious units; TMZ, temozolomide; XRT, radiation therapy.
To detect the level of viral replication, NSCs were infected with 50 IU of CRAd-S-pk7 and treated with XRT-TMZ. […] Adenoviral E1A gene expression was quantified via qRTPCR using iQ SYBR Green supermix (Bio-Rad, Hercules, Calif., http://www.bio-rad.com), using primers and protocol previously described (Sonabend et al. 2009). The quantification of infectious viral progeny of NSCs was conducted using the Adeno-X rapid titer kit protocol (Clontech, Mountain View, Calif., http://www.clontech.com) as described elsewhere (Thaci et al. 2012). The titration unit (IU/ml) values quantified through this protocol are similar to plaque-forming units. […]

Cn1nnc2c(C(N)=O)ncn2c1=O [TMZ, temozolomide]
decrease in E1A copies per nanogram of DNA: 3 fold

— patent publication US10709745B2, “Tropic cell based virotherapy for the treatment of cancer” (priority 2013, dated 2020)
